Laboratory results published in patent US10570168B2, “2′ and/or 5′ amino-acid ester phosphoramidate 3′-deoxy adenosine derivatives as anti- cancer compounds” (NuCana plc, priority 2014, dated 2020).
pIC50: −log10 of the molar value.

Assays:
Type in all cases: cell-based
[1] = system: leukaemic stem cell (LSC) compartment within the KG1a cell line; assay: Immunophenotypic identification of the leukaemic stem cell compartment; conditions: 72 h; for LSC targeting compared with the parent nucleoside: for compound A at 1 mM and above
Protocol: KG1a cells were cultured for 72 h in the presence of a wide range of concentrations of each compound assayed. Cells were then harvested and labelled with a cocktail of anti-lineage antibodies (PE-cy7), anti-CD34 (FITC), anti-CD38 (PE) and anti-CD123 (PERCP cy5). The sub-population expressing a LSC phenotype were subsequently identified and were expressed as a percentage of all viable cells left in the culture. The percentages of stem cells remaining were then plotted on a dose-response graph and the effects of the compounds were compared with each other, and with the parent nucleoside.
The data obtained in these experiments were evaluated using one way ANOVA. All data was confirmed as Gaussian or a Gaussian approximation using the omnibus K2 test. LD50 values were calculated from the non-linear regression and line of best-fit analysis of the sigmoidal dose-response curves. All statistical analyses were performed using Graphpad Prism 6.0 software (Graphpad Software Inc., San Diego, Calif.).

MCF7 = assay: Solid tumour and haematological malignancy assay (CellTiterGlo); conditions: Homo sapiens, MCF7, 72 h; for pIC50: read-out: IC50 (absolute IC50); for Emax: read-out: MI %
Protocol: (§1) In vitro viability assay were performed to assess the effects of compounds on cell viability in selected cell lines over 72 hr using the CellTiterGlo (CTG, Promega-G7573) assay. […] Cell viability assay using CellTiterGlo in 96-well plate were performed. Compound treatment 72 hrs, standard growth conditions, duplicates. Compounds were dissolved to 40 mM with thawed 100%. […] After compounds were dissolved in media, media containing compounds were warmed to 37° C. in incubator and then compounds in media were added to cell plates ([…]) in duplicates. […] All compound solubilities were checked and recorded again, then the plates were transferred to CO2 tissue culture incubator immediately and incubated for 3 days. DMSO final concentration is 0.5%.

MiaPaCa-2 = assay: as above; conditions: Homo sapiens, MIA PaCa-2, 72 h; for pIC50: read-out: IC50 (absolute IC50); for Emax: read-out: MI %
Protocol: as §1

HepG2 = assay: as above; conditions: Homo sapiens, HepG2, 72 h; for pIC50: read-out: IC50 (absolute IC50); for Emax: read-out: MI %
Protocol: as §1

HT29 = assay: as above; conditions: Homo sapiens, HT-29, 72 h; for pIC50: read-out: IC50 (absolute IC50); for Emax: read-out: MI %
Protocol: as §1

HL-60 = assay: as above; conditions: Homo sapiens, HL-60, 72 h; for pIC50: read-out: IC50 (absolute IC50); for Emax: read-out: MI %
Protocol: as §1

CCRFCEM = assay: as above; conditions: Homo sapiens, CCRF-CEM, 72 h; for pIC50: read-out: IC50 (absolute IC50); for Emax: read-out: MI %
Protocol: as §1

HEL92.1.7 = assay: as above; conditions: Homo sapiens, HEL 92.1.7, 72 h; for pIC50: read-out: IC50 (absolute IC50); for Emax: read-out: MI %
Protocol: as §1

KG-1 = assay: as above; conditions: Homo sapiens, KG-1, 72 h; for pIC50: read-out: IC50 (absolute IC50); for Emax: read-out: MI %
Protocol: as §1

K562 = assay: as above; conditions: Homo sapiens, K562, 72 h; for pIC50: read-out: IC50 (absolute IC50); for Emax: read-out: MI %
Protocol: as §1

KG1a cells = assay: Annexin V/propidium iodide in vitro apoptosis assay (LD50); conditions: 72 h
Protocol: The KG1a cell line was maintained in RPMI medium (Invitrogen, Paisley, UK) supplemented with 100 units/ml penicillin, 100 μg/ml streptomycin and 20% foetal calf serum. Cells were subsequently aliquoted (10^5 cells/100 μl) into 96-well plates and were incubated at 37° C. in a humidified 5% carbon dioxide atmosphere for 72 h in the presence of nucleoside analogues and their respective proTides at concentrations that were experimentally determined for each series of compounds. In addition, control cultures were carried out to which no drug was added. Cells were subsequently harvested by centrifugation and were analyzed by flow cytometry using the Annexin V assay.
Cultured cells were harvested by centrifugation and then resuspended in 195 μl of calcium-rich buffer. Subsequently, 5 μl of Annexin V (Caltag Medsystems, Botolph Claydon, UK) was added to the cell suspension and cells were incubated in the dark for 10 mins prior to washing. Cells were finally resuspended in 190 μl of calcium-rich buffer together with 10 μl of propidium iodide. Apoptosis was assessed by dual-colour immunofluorescent flow cytometry as described previously.
The data obtained in these experiments were evaluated using one way ANOVA. […] LD50 values were calculated from the non-linear regression and line of best-fit analysis of the sigmoidal dose-response curves. […]

SMILES	LSC targeting compared with the parent nucleoside [1]	pIC50 (MCF7)	Emax (MCF7)	pIC50 (MiaPaCa-2)	Emax (MiaPaCa-2)	pIC50 (HepG2)	Emax (HepG2)	pIC50 (HT29)	Emax (HT29)	pIC50 (HL-60)	Emax (HL-60)	pIC50 (CCRFCEM)	Emax (CCRFCEM)	pIC50 (HEL92.1.7)	Emax (HEL92.1.7)	pIC50 (KG-1)	Emax (KG-1)	pIC50 (K562)	Emax (K562)	further results
C[C@H](NP(=O)(OC[C@@H]1C[C@@H](O)[C@H](n2cnc3c(N)nc(F)nc32)O1)Oc1ccccc1)C(=O)OCc1ccccc1 (mixture of isomers) [P, (2S)-benzyl 2-(((((2S,4R,5R)-5-(6-amino-2-fluoro-9H-purin-9-yl)-4-hydroxytetrahydrofuran-2-yl)methoxy)(phenoxy)phosphoryl)amino)propanoate]	significantly improved when compared with the parental nucleoside	5.30 to 7.00	95%	5.30 to 7.00	98%	4.82 to 5.30	74%	4.82 to 5.30	87%	5.30 to 7.00	100%	5.30 to 7.00	99%	5.30 to 7.00	99%	5.30 to 7.00	97%	5.30 to 7.00	97%	
Nc1nc(F)nc2c1ncn2[C@@H]1O[C@H](CO)C[C@H]1O [2-F-Cordycepin, 3′deoxy-2-fluoroadenosine, reference compound]		4.00 to 4.82	97%	4.00 to 4.82	100%	4.00 to 4.82	82%	4.00 to 4.82	73%	4.82 to 5.30	96%	4.00 to 4.82	101%	4.82 to 5.30	99%	4.82 to 5.30	99%	4.00 to 4.82	97%	in vitro drug sensitivity / potency (LD50 comparison, FIG. 1) (KG1a cells): significantly more potent than Cordycepin
C[C@H](NP(=O)(OC[C@@H]1C[C@H](O)[C@H](n2cnc3c(N)nc(F)nc32)O1)Oc1cccc2ccccc12)C(=O)OCc1ccccc1 (stereo partly drawn) [Compound O, 2-Fluoro-3′-deoxyadenosine-5′-O-[1-naphthyl(benzyloxy-L-alaninyl)] phosphate]	not significantly different to 2-F-Cordycepin	5.30 to 7.00	95%	5.30 to 7.00	100%	4.82 to 5.30	83%	4.00 to 4.82	84%	5.30 to 7.00	101%	5.30 to 7.00	99%	5.30 to 7.00	100%	4.82 to 5.30	99%	5.30 to 7.00	99%	reduction of LSCs as a proportion of the cancer cells in culture (ability to target LSCs) ([1]; Lin−/CD34+/CD38−/CD123+): able to bring about a reduction in the proportion of LSCs
CCCCCOC(=O)[C@H](CC(C)C)NP(=O)(OC[C@@H]1C[C@H](O)[C@H](n2cnc3c(N)nc(F)nc32)O1)Oc1cccc2ccccc12 (stereo partly drawn) [Compound Q, 2-Fluoro-3′-deoxyadenosine-5′-O-[1-naphthyl(1-pentyloxy-L-leucinyl)] phosphate]	significantly improved when compared with the parental nucleoside	5.30 to 7.00	99%	5.30 to 7.00	100%	5.30 to 7.00	94%	4.00 to 4.82	88%	5.30 to 7.00	99%	5.30 to 7.00	101%	5.30 to 7.00	99%	4.82 to 5.30	103%	5.30 to 7.00	100%	
CCCCCCOC(=O)[C@H](C)NP(=O)(OC[C@@H]1C[C@@H](O)[C@H](n2cnc3c(N)nc(F)nc32)O1)Oc1ccccc1 (stereo partly drawn) [R, (2S)-hexyl 2-(((((2S,4R,5R)-5-(6-amino-2-fluoro-9H-purin-9-yl)-4-hydroxytetrahydrofuran-2-yl)methoxy)(phenoxy)phosphoryl)amino)propanoate]	significantly improved when compared with the parental nucleoside	5.30 to 7.00	87%	4.82 to 5.30	98%	4.82 to 5.30	82%	4.00 to 4.82	92%	5.30 to 7.00	100%	5.30 to 7.00	100%	5.30 to 7.00	99%	5.30 to 7.00	96%	4.82 to 5.30	96%	
